Experiments:
[1] = HepAD38 cells cytotoxicity assay (CellTiter-Glo Luminescent Cell Viability Assay); format: cell-based; conditions: human, 7 days total treatment, read-out: Cell tox (EC50, ηM)
Protocol: (§1) Example 36 HepAD38 Cells—HBsAg ELISA and Cytotoxicity Assays
(§2) HepAD38 cells are maintained in collagen-coated flasks in cell culture medium (DMEM/F12 containing 10% fetal bovine serum (FBS), GlutaMax-1, penicillin/streptomycin, non-essential amino acids, Na pyruvate, 250 μg/mL geneticin, and 1 μg/mL doxycycline). Compound solutions are prepared in DMSO and compound are serially diluted for final concentrations of 4000, 1000, 250, 62.5, 15.6, 3.91, 0.977, 0.244, 0.061, and 0.015 ηM. The cells are then trypsinized and the cells are plate at 10,000 cells per well. Incubate plates are incubated at 37° C., 5% CO2 for 4 days. Media is replaced with new media with compound treatment. The plates are then incubated at 37° C., 5% CO2 for an additional 3 days for a total treatment time of 7 days. For antiviral response, HBsAg was measured using the HBsAg ELISA kit (International Immuno-diagnostics) with instructions provided. 100 uL of cell media samples was used for ELISA. The absorbance was read on the Spectramax® 384 plate reader (Molecular Devices) at 450 nm. For cell toxicity, the cells were used for CellTiter-Glo® Luminescent Cell Viability Assay reagent (Promega). The luminescence was read on Envision Multilabel Reader (Perkin Elmer). The data was analyzed compared to the DMSO control. % inhibition=(1−(unknown/high control))*100
(§3) The average % inhibition values from duplicate assay plates are then plotted in GraphPad Prism to determine one IC value: Four-parameter logistic curve with equation Y=Bottom+(Top-Bottom)/(1+10^((Log IC50−X)*HillSlope)) pIC50=[…]

HBs antigens (HBsAg) = experiment: HepAD38 cells HBsAg ELISA; format: cell-based, Hepatitis B virus; conditions: read-out: HepAD38, HBsAg (EC50), 7 days total treatment, HBsAg ELISA of cell media
Protocol: as §1, §2, §3

| SMILES | EC50 at 7 days [1] [nM] | EC50 (HBs antigens (HBsAg)) [nM] |
| --- | --- | --- |
| COCCCOc1cc2c(nc1C1CC1)-c1cc(=O)c(C(=O)O)cn1[C@H]1[C@@H]2CCC1(C)C [Example 3, (4bR,7aS)-2-Cyclopropyl-3-(3-methoxypropoxy)-7,7-dimethyl-11-oxo-4b,5,6,7,7a,11-hexahydrocyclopenta[f]pyrido[1,2-h][1,7]naphthyridine-10-carboxylic acid] | > 4000 | < 1 |
| COCCCOc1cc2c(nc1C1CC1)-c1c(O)c(=O)c(C(=O)O)cn1[C@H](C(C)(C)C)C2 [Example 25, (S)-6-(tert-Butyl)-2-cyclopropyl-11-hydroxy-3-(3-methoxypropoxy)-10-oxo-5,10-dihydro-6H-pyrido[1,2-h][1,7]naphthyridine-9-carboxylic acid] | > 4000 | < 1 |
| COc1cc2c(nc1OC)-c1cc(=O)c(C(=O)O)cn1C1(CCC1)C2 [Example 32, 2′,3′-Dimethoxy-10′-oxo-5′,10′-dihydrospiro[cyclobutane-1,6′-pyrido[1,2-h][1,7]naphthyridine]-9′-carboxylic acid] | > 4000 | 10 to 100 |
| COCCCOc1cc2c(nc1C(C)C)-c1cc(=O)c(C(=O)O)cn1[C@H](C(C)(C)C)C2 [Example 22, (S)-6-(tert-Butyl)-2-isopropyl-3-(3-methoxypropoxy)-10-oxo-6,10-dihydro-5H-pyrido[1,2-h][1,7]naphthyridine-9-carboxylic acid] | > 4000 | < 1 |
| Cc1nc2c(cc1OCC1CC1)C[C@@H](C(C)(C)C)n1cc(C(=O)O)c(=O)cc1-2 [Example 12, (S)-6-(tert-Butyl)-3-(cyclopropylmethoxy)-2-methyl-10-oxo-6,10-dihydro-5H-pyrido[1,2-h][1,7]naphthyridine-9-carboxylic acid] | > 4000 | < 1 |
| CC1(C)CC[C@@H]2c3cc(O)c(Cl)nc3-c3cc(=O)c(C(=O)O)cn3[C@@H]21 [Example 9, (4bR,7aS)-2-Chloro-3-hydroxy-7,7-dimethyl-11-oxo-4b,5,6,7,7a,11-hexahydrocyclopenta[f]pyrido[1,2-h][1,7]naphthyridine-10-carboxylic acid] | > 4000 | > 100 |
| O=C(O)c1cn2c(cc1=O)-c1nc(Cl)c(OCC3CC3)cc1CC21CCC1 [Example 31, 2′-Chloro-3′-(cyclopropylmethoxy)-10′-oxo-5′,10′-dihydrospiro[cyclobutane-1,6′-pyrido[1,2-h][1,7]naphthyridine]-9′-carboxylic acid] | > 4000 | 1 to 10 |
| C=C(C)c1nc2c(cc1OCCCOC)C[C@@H](C(C)(C)C)n1cc(C(=O)O)c(=O)cc1-2 [Example 21, (S)-6-(tert-Butyl)-3-(3-methoxypropoxy)-10-oxo-2-(prop-1-en-2-yl)-6,10-dihydro-5H-pyrido[1,2-h][1,7]naphthyridine-9-carboxylic acid] | > 4000 | < 1 |
| COCCCOc1cc2c(nc1Cl)-c1cc(=O)c(C(=O)O)cn1[C@H]1[C@@H]2CCC1(C)C (single isomer, unassigned) [Example 1] | > 4000 | < 1 |
| CC(C)C1(C)Cc2cc(OCC3CC3)c(Cl)nc2-c2cc(=O)c(C(=O)O)cn21 (single isomer, unassigned; isomer-1) [Example 26, (2-Chloro-3-(cyclopropylmethoxy)-6-isopropyl-6-methyl-10-oxo-5,10-dihydro-6H-pyrido[1,2-h][1,7]naphthyridine-9-carboxylic acid-Isomer-1] | > 4000 | 1 to 10 |
| COCCCOc1cc2c(nc1CO)-c1cc(=O)c(C(=O)O)cn1[C@H](C(C)(C)C)C2 [Example 24, (S)-6-(tert-Butyl)-2-(hydroxymethyl)-3-(3-methoxypropoxy)-10-oxo-5,10-dihydro-6H-pyrido[1,2-h][1,7]naphthyridine-9-carboxylic acid] | > 4000 | 1 to 10 |
| COCCCOc1cc2c(nc1Cl)-c1cc(=O)c(C(=O)O)cn1C1C2CCC1(C)C (racemic) [Example 34, 2-Chloro-3-(3-methoxypropoxy)-7,7-dimethyl-11-oxo-4b,5,6,7,7a,11-hexahydrocyclopenta[f]pyrido[1,2-h][1,7]naphthyridine-10-carboxylic acid] | > 4000 | < 1 |
| CC(C)(C)C1Cc2cc(OCC3CC3)c(Cl)nc2-c2cc(=O)c(C(=O)O)cn21 (single isomer, unassigned; isomer 2) [Example 30-B, 6-(tert-Butyl)-2-chloro-3-(cyclopropylmethoxy)-10-oxo-6,10-dihydro-5H-pyrido[1,2-h][1,7]naphthyridine-9-carboxylic acid (isomer 2)] | > 4000 | > 100 |
| COCCCOc1cc2c(nc1Cl)-c1cc(=O)c(C(=O)O)cn1[C@H](C(C)(C)C)C2 [Example 11, (S)-6-(tert-Butyl)-2-chloro-3-(3-methoxypropoxy)-10-oxo-6,10-dihydro-5H-pyrido[1,2-h][1,7]naphthyridine-9-carboxylic acid] | > 4000 | < 1 |
| COCCCOc1cc2c(nc1Cl)-c1cc(=O)c(C(=O)O)c(C)n1[C@H](C(C)(C)C)C2 [Example 23, (S)-6-(tert-Butyl)-2-chloro-3-(3-methoxypropoxy)-8-methyl-10-oxo-6,10-dihydro-5H-pyrido[1,2-h][1,7]naphthyridine-9-carboxylic acid] | > 4000 | > 100 |
| CC(C)(C)C1Cc2cc(OCC3CC3)c(Cl)nc2-c2cc(=O)c(C(=O)O)cn21 (racemic) [Example 30, 6-(tert-Butyl)-2-chloro-3-(cyclopropylmethoxy)-10-oxo-6,10-dihydro-5H-pyrido[1,2-h][1,7]naphthyridine-9-carboxylic acid] | > 4000 | 1 to 10 |
| COCCCOc1cc2c(nc1Cl)-c1cc(=O)c(C(=O)O)cn1[C@@H]1C(C)(C)CCC21O (stereo partly drawn) [Example 6, (7aR)-2-Chloro-4b-hydroxy-3-(3-methoxypropoxy)-7,7-dimethyl-11-oxo-4b,5,6,7,7a,11-hexahydrocyclopenta[f]pyrido[1,2-h][1,7]naphthyridine-10-carboxylic acid] | > 4000 | 10 to 100 |
| COCCCOc1cc2c(nc1Cl)-c1cc(=O)c(C(=O)O)cn1C(C(C)(C)CO)C2 (stereo not drawn) [Example 10, 2-Chloro-6-(1-hydroxy-2-methylpropan-2-yl)-3-(3-methoxypropoxy)-10-oxo-6,10-dihydro-5H-pyrido[1,2-h][1,7]naphthyridine-9-carboxylic acid] | > 4000 | 1 to 10 |
| COCCCOc1cc2c(nc1C1CC1)-c1cc(=O)c(C(=O)O)cn1[C@@H]1C(C)(C)CCC21O (single isomer, unassigned) [Example 5] | > 4000 | 1 to 10 |
| COCCCOc1cc2c(nc1C1CC1)-c1cc(=O)c(C(=O)O)cn1[C@H](C(C)(C)C)C2 [Example 15, (S)-6-(tert-Butyl)-2-cyclopropyl-3-(3-methoxypropoxy)-10-oxo-6,10-dihydro-5H-pyrido[1,2-h][1,7]naphthyridine-9-carboxylic acid] | > 4000 | < 1 |
| COc1nc2c(cc1OCC1CC1)C[C@H](C(C)(C)C)n1cc(C(=O)O)c(=O)cc1-2 [Example 16, (R)-6-(tert-Butyl)-3-(cyclopropylmethoxy)-2-methoxy-10-oxo-6,10-dihydro-5H-pyrido[1,2-h][1,7]naphthyridine-9-carboxylic acid] | > 4000 | > 100 |

Source: patent publication US12221444B2, “5,6,7,7a-tetrahydrocyclopenta[f]pyrido[1,2-h][1,7]naphthyridin-11(4bH)-one compounds and methods of use” (GLAXOSMITHKLINE INTELLECTUAL, priority 2017, dated 2025)
